From patent US20070167526A1, “Topical mecamylamine formulations for ocular administration and uses thereof” (priority 2005, published 2007)
Where a name gives a salt, the structure may show the parent alone.

Legend:
[1] = Ocular bioavailability following intravenous administration (Example 2); type: in vivo, New Zealand White rabbit; conditions: rabbit
From the text: This study was designed to model the ocular bioavailability of mecamylamine when administered systemically. Rabbit eyes are the preferred model for in vivo modeling of ocular drugs, however, the rabbit is not the subject of choice for modeling oral bioavailability. However, systemic administration does emulate orally administered mecamylamine to a reasonable approximation since mecamylamine has rapid absorption and high oral bioavailability. Therefore, intravenous injection was used to model ocular bioavailability of mecamylamine administered systemically, in order to determine the deposition of mecamylamine to the plasma, vitreous and posterior tissues (retina/choroid) of the eye from the blood.
The study comprised 2 groups (each N=6, 12 rabbits total) of male NZW (New Zealand White) rabbits weighing approximately 2.5-3 kg and obtained from Kralek Farms (Turlock, Calif.). Mecamylamine solution, prepared as described in Example 1, at a dose of 15 mg/kg was delivered via i.v. infusion as either a short infusion (1 hr) or slow infusion (6 hr) in rabbits sedated by ketamine/xylazine, with the slow infusion intended to model controlled systemic release of the mecamylamine.
For both groups, samples of the vitreous(≧0.1 ml) and plasma were withdrawn at 6 time points: pre-dose, 30 min, 1, 2, 4, and 6 hr. At 6 hours, all animals were sacrificed and vitreous and retinal tissues were collected. The total amount of mecamylamine administered during each infusion was the same, based on the weight of the individual rabbit.
The concentrations of mecamylamine present in the various samples were analyzed as described in Example 6, below.

[2] = tested on: eyes of New Zealand White rabbits; assay: Pupil diameter, pupillary response and mortality observations after topical ocular instillation in rabbits (Example 10); conditions: rabbit, in vivo
Experimental: The objective of this study was to evaluate the ocular pharmacokinetics of a 2% Mecamylamine in a GELRITE solution up to 6 hours following topical instillation into the eyes of New Zealand White rabbits. Nine New Zealand White female rabbits of minimum age of 9 weeks and weight 2-3 kg were obtained from The Rabbit Source (Ramona, Calif.) were used in the study.
On day 1, 2 drops of 50 μL of mecamylamine or vehicle were administered topically into the appropriate eye(s) of each animal as described in Table 13. The time of each dose administration was recorded.

[3] = tested on: endothelial nAChRs; conditions: in vitro; endothelial cells; cited from earlier work
[4] = in vivo; conditions: rabbit, in vivo
Experimental: As used herein, the term “topically administered to a rabbit eye,” and cognates thereof, refers to the administration of a particular mecamylamine formulation, including formulations of pharmaceutically acceptable salts of mecamylamine, by applying 100 μL of the mecamylamine formulation to the cornea of each eye (2 drops of 50 μL each), wherein at the time of application the bottom eyelid is separated from the surface of the eye to make a pocket to ensure the entire dose is retained in contact with the eye. When the concentration of mecamylamine in plasma and in the retinal/choroidal tissue is to be measured in connection with the calculation of the ratio of the mecamylamine concentration in the retina/choroid versus the concentration of mecamylamine in plasma, the concentration of each is determined 1 hour after application of the formulation. The amount of mecamylamine present in plasma and the retina/choroid is determined by LC/MS/MS using internal standards of dextromethorphan and diphenhydramine and a standard of known concentration of mecamylamine. An exemplary method of administration of the topical formulation of mecamylamine is provided in Example 5. An exemplary LC/MS/MS method for determining the ratios described herein is given in detail in Example 6. When the mean maximum concentration of mecamylamine in plasma is to be determined, the concentration is again determined as described above and in Example 6. The term “mean maximum concentration of mecamylamine,” and its cognates, as used herein refers to the mean maximum concentration of mecamylamine measured in plasma when monitored over a 6 hour time period after administration of the formulation. When the mean total concentration of mecamylamine in plasma is to be determined, the concentration is again determined as described above and in Example 6. The term “total concentration of mecamylamine in plasma measured as the area under the curve,” (AUC) and cognates thereof, refers to summation of the areas under plot of the drug plasma versus time using a simple trapezoidal method with drug plasma time points taken to include 1, 3 and 6 hours after topical administration. Determination of AUC for corneal tissue, retinal/choroid tissue and aqueous humor is determined similarly. When the concentration of mecamylamine in plasma and in the corneal tissue is to be measured in connection with the calculation of the ratio of the mecamylamine concentration in the cornea (or aqueous humor) versus the concentration of mecamylamine in plasma, the concentration of each is determined 1 hour after application of 50 μl of the formulation. The amount of mecamylamine present in plasma and the cornea (or aqueous humor) is determined by LC/MS/MS using internal standards of dextromethorphan and diphenhydramine and a standard of known concentration of mecamylamine. An exemplary method of administration of the topical formulation of mecamylamine is provided in Example 5. An exemplary LC/MS/MS method for determining the ratios described herein is given in detail in Example 6.
A single dose of a polymer-free solution, gellan gum formulation and hypromellose formulation containing 3% mecamylamine hydrochloride, was instilled in the eyes of rabbits (Dutch-belted male rabbits (Convance, Denver, Pa.) minimum age 2 months and with weights of 1.6 to 1.8 kg). Two animals were euthanized 30 minutes, 1 hour or 3 hours after dosing.
Sample of blood and ocular tissue (obtained as described in previous examples) were analyzed for mecamylamine concentration using an LC MS/MS method up to 3 hours after dosing.
The area-under-the-curve (AUC) was calculated using a trapezoidal rule on a population pharmacokinetic basis (see Table 9).

CNC1(C)C2CCC(C2)C1(C)C (stereo not shown) [mecamylamine hydrochloride]
mean maximum concentration of mecamylamine in plasma ([1]; long i.v. infusion (FIG. 2)): greater than 500 ng/mL
mean maximum concentration of mecamylamine in plasma ([1]; short i.v. administration (FIG. 1)): > 1500 ng/mL
pupil diameter and pupil diameter response to light (mydriasis) [2]: did not result in significant changes in pupil diameter or pupil diameter response to light

CN1CCCC1c1cccnc1 (stereo not shown) [nicotine]
concentrations at which the maximal effect of nicotine occurs [3]: 10 to 100 nM

HPMC
Aqueous Humor AUC [4]: 7,355 ng/mL*hr
Cornea AUC [4]: 114000 ng·h/g
Plasma AUC [4]: 61 ng·h/mL
Ratio Aqu H:plasma (AUC) [4]: 120
Ratio Cornea:Plasma (AUC) [4]: 1,868:1
Ratio Retina/Choroid:Plasma (AUC) [4]: 291:1
Retina/Choroid AUC [4]: 17800 ng·h/g
Mecamylamine AUC, Anterior sclera ([4]; topical or ocular): 32790 ng·h/g
Mecamylamine AUC, Aqueous humor ([4]; topical or ocular): 7355 ng·h/mL
Mecamylamine AUC, Conjunctiva ([4]; topical or ocular): 114398 ng·h/g
Mecamylamine AUC, Cornea ([4]; topical or ocular): 113938 ng·h/g
Mecamylamine AUC, Extraocular muscle ([4]; topical or ocular): 31236 ng·h/g
Mecamylamine AUC, Iris-ciliary body ([4]; topical or ocular): 114813 ng·h/g
Mecamylamine AUC, Lens ([4]; topical or ocular): 1064 ng·h/g
Mecamylamine AUC, Optic Nerve ([4]; topical or ocular): 11515 ng·h/g
Mecamylamine AUC, Posterior sclera ([4]; topical or ocular): 23638 ng·h/g
Mecamylamine AUC, Retina/Choroid ([4]; topical or ocular): 17804 ng·h/g
Mecamylamine AUC, Vitreous humor ([4]; topical or ocular): 335 ng·h/mL
